Experimental data taken from ChEMBL document CHEMBL5241112, “Insights into the recent progress in the medicinal chemistry of pyranopyrimidine analogs” (RSC Med Chem, 2022).
Values after ≈ are worked out from the molar mass of the structure shown.

What was measured:
HepG2 = assay: Anticancer activity against human HepG2 cells assessed as reduction in cell viability; format: functional, cell-based
MCF7 [1] = assay: Anticancer activity against human MCF7 cells assessed as reduction in cell viability; format: functional, cell-based
DNA topoisomerase II = DNA topoisomerase II (Homo sapiens, UniProt P11388+Q02880); assay: Inhibition of DNA topoisomerase 2 (unknown origin); format: protein assay
DNA = assay: Binding affinity to DNA (unknown origin) assessed as DNA intercalation; format: nucleic-acid assay
HCT-116 = assay: cells; conditions: Homo sapiens
Staphylococcus aureus [2] = assay: Antimicrobial activity against Staphylococcus aureus assessed as diameter of inhibition zone at 1.2 mg/ml incubated for 12 hrs by agar disk diffusion method; format: functional
Staphylococcus aureus [3] = assay: Antimicrobial activity against Staphylococcus aureus assessed as diameter of inhibition zone at 2.5 mg/ml incubated for 12 hrs by agar disk diffusion method; format: functional
Staphylococcus aureus [4] = assay: Antimicrobial activity against Staphylococcus aureus assessed as diameter of inhibition zone at 5.0 mg/ml incubated for 12 hrs by agar disk diffusion method; format: functional
Escherichia coli [5] = assay: Antimicrobial activity against Escherichia coli assessed as diameter of inhibition zone at 1.2 mg/ml incubated for 12 hrs by agar disk diffusion method; format: functional
Escherichia coli [6] = assay: Antimicrobial activity against Escherichia coli assessed as diameter of inhibition zone at 2.5 mg/ml incubated for 12 hrs by agar disk diffusion method; format: functional
Escherichia coli [7] = assay: Antimicrobial activity against Escherichia coli assessed as diameter of inhibition zone at 5.0 mg/ml incubated for 12 hrs by agar disk diffusion method; format: functional
Pseudomonas aeruginosa [8] = assay: Antimicrobial activity against Pseudomonas aeruginosa assessed as diameter of inhibition zone at 1.2 mg/ml incubated for 12 hrs by agar disk diffusion method; format: functional
Pseudomonas aeruginosa [9] = assay: Antimicrobial activity against Pseudomonas aeruginosa assessed as diameter of inhibition zone at 2.5 mg/ml incubated for 12 hrs by agar disk diffusion method; format: functional
Pseudomonas aeruginosa [10] = assay: Antimicrobial activity against Pseudomonas aeruginosa assessed as diameter of inhibition zone at 5.0 mg/ml incubated for 12 hrs by agar disk diffusion method; format: functional
Bacillus cereus [11] = assay: Antimicrobial activity against Bacillus cereus assessed as diameter of inhibition zone at 1.2 mg/ml incubated for 12 hrs by agar disk diffusion method; format: functional
Bacillus cereus [12] = assay: Antimicrobial activity against Bacillus cereus assessed as diameter of inhibition zone at 2.5 mg/ml incubated for 12 hrs by agar disk diffusion method; format: functional
Bacillus cereus [13] = assay: Antimicrobial activity against Bacillus cereus assessed as diameter of inhibition zone at 5.0 mg/ml incubated for 12 hrs by agar disk diffusion method; format: functional
MDA-MB-435 [14] = assay: Anticancer activity against human MDA-MB-435 cells assessed as cell growth inhibition by sulforhodamine B assay; format: functional
PC-3 [15] = assay: Anticancer activity against human PC-3 cells assessed as cell growth inhibition by sulforhodamine B assay; format: functional
OVCAR-3 [16] = assay: Anticancer activity against human OVCAR-3 cells assessed as cell growth inhibition by sulforhodamine B assay; format: functional
MDA-MB-435 [17] = assay: Anticancer activity against human MDA-MB-435 cells assessed as tumor growth inhibition by sulforhodamine B assay; format: functional
PC-3 [18] = assay: Anticancer activity against human PC-3 cells assessed as tumor growth inhibition by sulforhodamine B assay; format: functional
OVCAR-3 [19] = assay: Anticancer activity against human OVCAR-3 cells assessed as tumor growth inhibition by sulforhodamine B assay; format: functional
MDA-MB-435 [20] = assay: Anticancer activity against human MDA-MB-435 cells assessed as lethality by sulforhodamine B assay; format: functional; conditions: read-out: LC50 (the source's name)
PC-3 [21] = assay: Anticancer activity against human PC-3 cells assessed as lethality by sulforhodamine B assay; format: functional; conditions: read-out: LC50 (the source's name)
OVCAR-3 [22] = assay: Anticancer activity against human OVCAR-3 cells assessed as lethality by sulforhodamine B assay; format: functional; conditions: read-out: LC50 (the source's name)
HeLa = assay: Anticancer activity against human HeLa cells assessed as reduction in cell viability incubated for 48 hrs by MTT assay; format: functional, cell-based
MCF7 [23] = assay: cells; conditions: Homo sapiens, MCF7, 48 h
Escherichia coli [24] = assay: Antimicrobial activity against Escherichia coli assessed as diameter of inhibition zone by agar well diffusion method; format: functional
Bacillus subtilis = assay: Antimicrobial activity against Bacillus subtilis assessed as diameter of inhibition zone by agar well diffusion method; format: functional
[25] = Antioxidant activity assessed as DPPH radical scavenging activity at 25 ug/ml incubated for 30 mins by spectrophotometric analysis; format: functional; conditions: dose 25.0 µg/ml
[26] = Antioxidant activity assessed as DPPH radical scavenging activity at 50 ug/ml incubated for 30 mins by spectrophotometric analysis; format: functional; conditions: dose 50.0 µg/ml
[27] = biological target: Hydroxycarboxylic acid receptor 2 (Homo sapiens, UniProt Q8TDS4); assay: Agonist activity at human HCA2 expressed in human Flp-In-293 cells assessed as inhibition of forskolin-stimulated cAMP accumulation at 50 uM incubated for 30 mins by Lance cAMP assay; format: cell-based; conditions: filed as agonist
Escherichia coli [28] = assay: Antibacterial activity against Escherichia coli ATCC 25922 assessed as diameter of inhibition zone incubated for 24 hrs by disc diffusion assay; format: functional
Pseudomonas aeruginosa [29] = assay: Antibacterial activity against Pseudomonas aeruginosa ATCC 27853 assessed as diameter of inhibition zone incubated for 24 hrs by disc diffusion assay; format: functional
Escherichia coli [30] = assay: Antibacterial activity against Escherichia coli ATCC 25922 assessed as inhibition of bacterial growth incubated for 24 hrs by broth macrodilution method; format: functional
Pseudomonas aeruginosa [31] = assay: Antibacterial activity against Pseudomonas aeruginosa ATCC 27853 assessed as inhibition of bacterial growth incubated for 24 hrs by broth macrodilution method; format: functional
NUGC = assay: Anticancer activity against human NUGC cells assessed as cell growth inhibition incubated for 24 hrs; format: functional, cell-based
DLD-1 = assay: Anticancer activity against human DLD-1 cells assessed as cell growth inhibition incubated for 24 hrs; format: functional, cell-based; conditions: DLD-1, 24 h
Aspergillus niger [32] = assay: Antifungal activity against Aspergillus niger ATCC 6275 assessed as diameter of inhibition zone incubated for 7 days by disc diffusion assay; format: functional; conditions: time 7 day
Aspergillus niger [33] = assay: Antifungal activity against Aspergillus niger ATCC 6275 assessed as inhibition of […] growth incubated for 7 days by broth macrodilution method; format: functional; conditions: ATCC 6275, 168 h, time 7 day

Chain of Hydroxycarboxylic acid receptor 2 (Q8TDS4 whole entry, the tested form may be a part): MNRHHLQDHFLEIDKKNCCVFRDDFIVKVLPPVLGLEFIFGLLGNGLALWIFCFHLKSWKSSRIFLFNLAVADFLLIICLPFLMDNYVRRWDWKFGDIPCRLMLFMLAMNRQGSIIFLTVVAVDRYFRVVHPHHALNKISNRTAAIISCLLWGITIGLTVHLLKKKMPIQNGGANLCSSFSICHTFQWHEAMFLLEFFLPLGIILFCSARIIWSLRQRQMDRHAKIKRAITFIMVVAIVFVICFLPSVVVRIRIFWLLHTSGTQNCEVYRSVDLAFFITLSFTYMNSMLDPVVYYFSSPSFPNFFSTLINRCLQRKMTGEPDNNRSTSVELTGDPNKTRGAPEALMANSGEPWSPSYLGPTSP

COc1ccc(C2c3c([nH]c(=O)[nH]c3=O)Oc3ncn(C(=S)Nc4ccccc4)c(=N)c32)cc1 (stereo unspecified)
IC50 (HepG2): 2090 nM
IC50 (MCF7 [1]): 2430 nM
IC50 (DNA topoisomerase II): 791 nM
IC50 (DNA): 27100 nM
IC50 (HCT-116): 2610 nM

COc1ccc(C2C(C#N)=C(N)Oc3[nH]c(=S)[nH]c(=O)c32)cc1 (stereo unspecified)
zone of inhibition at 1200 µg/mL (Staphylococcus aureus [2]; read-out: DIZ): 12 mm
zone of inhibition at 2500 µg/mL (Staphylococcus aureus [3]; read-out: DIZ): 16 mm
zone of inhibition at 5000 µg/mL (Staphylococcus aureus [4]; read-out: DIZ): 20 mm
zone of inhibition at 1200 µg/mL (Escherichia coli [5]; read-out: DIZ): 14 mm
zone of inhibition at 2500 µg/mL (Escherichia coli [6]; read-out: DIZ): 20 mm
zone of inhibition at 5000 µg/mL (Escherichia coli [7]; read-out: DIZ): 30 mm
zone of inhibition at 1200 µg/mL (Pseudomonas aeruginosa [8]; read-out: DIZ): 12 mm
zone of inhibition at 2500 µg/mL (Pseudomonas aeruginosa [9]; read-out: DIZ): 17 mm
zone of inhibition at 5000 µg/mL (Pseudomonas aeruginosa [10]; read-out: DIZ): 30 mm
zone of inhibition at 1200 µg/mL (Bacillus cereus [11]; read-out: DIZ): 14 mm
zone of inhibition at 2500 µg/mL (Bacillus cereus [12]; read-out: DIZ): 18 mm
zone of inhibition at 5000 µg/mL (Bacillus cereus [13]; read-out: DIZ): 22 mm

COc1cccc2c1C(=O)c1c(O)c3c(c(O)c1C2=O)C[C@@](O)(C(=O)CO)C[C@@H]3O[C@H]1C[C@H](N)[C@H](O)[C@H](C)O1.Cl [DOXORUBICIN HYDROCHLORIDE]
GI50 (MDA-MB-435 [14]): < 100 nM
GI50 (PC-3 [15]): < 100 nM
GI50 (OVCAR-3 [16]): < 100 nM
TGI (MDA-MB-435 [17]): 5.5%
TGI (PC-3 [18]): 76.7%
TGI (OVCAR-3 [19]): 56.3%
CC50 (MDA-MB-435 [20]): 91800 nM
CC50 (PC-3 [21]): > 100000 nM
CC50 (OVCAR-3 [22]): > 100000 nM
IC50 (HeLa): < 10000 nM
IC50 (MCF7 [23]): < 10000 nM

CC(C)c1ccc(C2C(C#N)=C(N)Oc3[nH]c(=O)[nH]c(=O)c32)cc1 (stereo unspecified)
diameter of the inhibition zone (DIZ) (Escherichia coli [24]): 10.8 mm
diameter of the inhibition zone (DIZ) (Bacillus subtilis): 13 mm

O=c1c(C2c3c(-c4ccccc4)n[nH]c3Oc3[nH]c(=S)n(-c4ccccc4)c(=S)c32)coc2ccccc12 (stereo unspecified)
Activity [25]: 61.6%
Activity [26]: 66.4%

COc1ccc(C2c3c([nH]c(=O)[nH]c3=O)Oc3ncn(-c4ccccc4O)c(=N)c32)cc1 (stereo unspecified)
IC50 (HepG2): 2090 nM
IC50 (MCF7 [1]): 2430 nM
IC50 (DNA topoisomerase II): 776 nM
IC50 (DNA): 29900 nM
IC50 (HCT-116): 2610 nM

O=C(CSc1nc(=O)c2c(CCCCCl)cc(=O)oc2[nH]1)Oc1ccccc1
Emax [27]: 85%

GENTAMICIN
inhibition zone (IZ) (Staphylococcus aureus [2]): 11 mm
inhibition zone (IZ) (Staphylococcus aureus [3]): 14 mm
inhibition zone (IZ) (Staphylococcus aureus [4]): 18 mm
inhibition zone (IZ) (Escherichia coli [5]): 11 mm
inhibition zone (IZ) (Escherichia coli [6]): 14 mm
inhibition zone (IZ) (Escherichia coli [7]): 18 mm
inhibition zone (IZ) (Pseudomonas aeruginosa [8]): 11 mm
inhibition zone (IZ) (Pseudomonas aeruginosa [9]): 14 mm
inhibition zone (IZ) (Pseudomonas aeruginosa [10]): 18 mm
inhibition zone (IZ) (Bacillus cereus [11]): 11 mm
inhibition zone (IZ) (Bacillus cereus [12]): 14 mm
inhibition zone (IZ) (Bacillus cereus [13]): 18 mm
inhibition zone (IZ) (Escherichia coli [28]): 21.3 mm
inhibition zone (IZ) (Pseudomonas aeruginosa [29]): 17.3 mm
MIC (Escherichia coli [30]): 3.68 µg/mL
MIC (Pseudomonas aeruginosa [31]): 15.4 µg/mL

NC(=O)CSc1nc(=O)c2c(CCCCCl)cc(=O)oc2[nH]1
Emax [27]: 87%

N#CC1=C(N)C2C(=NC(n3[nH]c(N)cc3=O)=NC2c2ccc(Cl)cc2)OC1=O (stereo unspecified)
IC50 (NUGC): 2210 nM
IC50 (DLD-1): 2130 nM

COc1ccc(C2c3c([nH]c(=O)[nH]c3=O)Oc3ncn(-c4cc(C)ccn4)c(=N)c32)cc1 (stereo unspecified)
diameter of the inhibition zone (DIZ) (Escherichia coli [28]): 18.1 mm
diameter of the inhibition zone (DIZ) (Pseudomonas aeruginosa [29]): 17.3 mm
diameter of the inhibition zone (DIZ) (Aspergillus niger [32]): 17.2 mm
MIC (Escherichia coli [30]): 0.781 µg/mL (≈ 1.81 µM)
MIC (Pseudomonas aeruginosa [31]): 3.12 µg/mL (≈ 7.26 µM)
MIC (Aspergillus niger [33]): 15.4 µg/mL (≈ 35.7 µM)
IC50 (HepG2): 2090 nM
IC50 (MCF7 [1]): 2430 nM
IC50 (HCT-116): 2610 nM
